According to patent US6388174B1, “Gene encoding α-subunit of rice anthranilate synthase and DNA relating thereto” (Hokko Chemical Industry Co., Ltd., priority 1997, dated 2002):

Assays:
rice callus cells [1] = test: Selection of transformed rice callus cells and plants, Agrobacterium method (vector pUb-OSASA1D); type: cell-based, rice (variety: Nihonbare)
Experimental: Preparation of Agrobacterium bacterium was carried out in the same manner as in Example 3(4) using the recombinant vector pUb-OSASA1D mentioned in the above (1). Preparation of rice callus cells was carried out in the same manner as in Example 3(5). And, gene introduction into the rice callus cells was carried out in the same manner as in Example 3(6).
The obtained calli as transformed with the recombinant vector were washed with sterilized water containing 500 mg/l carbenicillin, to remove the Agrobacterium bacterium. After removal of excess water, the calli (20 calli per petri dish, 500 calli in total) were transplanted to a solid medium as prepared by adding 30 g/l sucrose, 2 mg/l 2,4-PA, 500 mg/l carbenicillin, 2 g/l Gerite and 3×10^−4 M 5MT as a selective drug, to the inorganic salt composition of N6 medium. […]
(§1) After one month of cultivation, the number of the transformed calli thus selected was counted. […]
The transformed calli as selected by the above cultivation in view of their 5MT resistance were transplanted to a solid regeneration medium which was prepared by adding 30 g/l sucrose, 30 g/l sorbitol, 2 g/l casamino acid, 1 mg/l NAA, 2 mg/l BA, 4 g/l Gel lite and3×10^−4M 5MT to the inorganic salt composition of MS medium. […] The number of the transformed plants regenerated from the transformed calluses was counted. […]

rice callus cells [2] = test: Selection of transformed rice callus cells and plants, direct introduction using whiskers (vector pUBdD); type: cell-based, rice (variety: Nihonbare)
Experimental: Ripe seeds of rice (variety: Nihonbare) were hulled, and the resulting seeds with coats were sterilized by immersion in a 70% ethanol solution for 60 seconds and then in a sodium hypochlorite solution containing about 1% effective chlorine for 6 minutes, followed by washing with sterilized water.
The thus sterilized rice seeds were placed on a medium as prepared by adding 30 g/l sucrose, 2 mg/l 2,4-PA as a phytohormone and 8 g/l agar to the inorganic component composition of MS medium. Incubation of seeds was carried out at 28° C. for 45 days with irradiation with light at 2000 lx for 16 hours per day, to form callus. The formed calli were cut from the albumen of the seeds, and those calli having a size of 1 mm or less were obtained in an amount of 3 ml in term of PCV (Packed Cell Volume), with using a stainless steel sieve (mesh size: 1 mm).
Separately, […] of potassium titanate whiskers (LS20, Titan Kogyo K.K.) was put into a 1.5-ml tube, and 0.5 ml of ethanol was added thereto. The mixture was allowed to stand overnight, and ethanol was evaporated completely to obtain sterilized whiskers. To this tube containing the whiskers was added 1 ml of sterilized water, followed by sufficient stirring. […]
as §1

[3] = 30 days on regeneration medium with selective drug (3×10^−4 M 5MT, or 50 mg/l hygromycin in control group)

Cc1ccc2[nH]cc(C[C@H](N)C(=O)O)c2c1 [Test Group, 5-methyltryptophan]
Transformed Callus Cells Selected (rice callus cells [1]; 500 calli tested, one month on selective medium (3×10^−4 M 5MT, or 50 mg/l hygromycin in control group)): 45
Transformed Plants Selected (rice callus cells [1]; [3]): 43
Transformed Callus Cells Selected (rice callus cells [2]; 2000 divided cells tested, one month on selective medium (10^−4 M 5MT, or 50 mg/l hygromycin in control group)): 102
Transformed Plants Selected (rice callus cells [2]; [3]): 85
